For 24 molecules, IC50 and activity results are on record in patent publication US11845724B2, “USP30 inhibitors and uses thereof” (Vincere Biosciences, Inc., priority 2019, dated 2023).

Molecules are shown by their SMILES. Like-named read-outs stand apart in the source and are kept apart here.

Experiment [1] addresses T1, USP30 (Homo sapiens (Human), UniProt Q70CQ3). As to the kind of experiment: Dundee MALDI-TOF mass spectrometry assay (IC50). Format: biochemical. The conditions noted are these: USP30 25 ng/μl, K48-linked diubiquitin 5.6 μM. The essentials:
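USP30 (25 ng/μl) preincubated with compound 5 min at RT in Tris/BSA/DTT buffer, then K48-linked diubiquitin (5.6 μM) added for 45 min at RT. Stopped with 2% TFA; cleavage quantified by MALDI-TOF mass spectrometry to give IC50.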

In experiment [2] the target is T1, USP30. As to the kind of experiment: Dundee MALDI-TOF mass spectrometry assay (% DUB activity remaining at 1 μM). Format: biochemical. Conditions: % DUB activity remaining at compound concentration of 1 μM; avg; read-out: Dundee % Activity at 1 μM (avg in vitro MS assay). On the procedure:
Compounds were tested in a MALDI-TOF assay based on the paper by Ritorto et al. (Ritorto et al. Screening of DUB activity and specificity by MALDI-TOF mass spectrometry. Nat. Commun. 5:4763).
USP30 (25 ng/μl) tested against K48-linked diubiquitin (5.6 μM). USP30 was diluted in a buffer containing 40 mM Tris, 0.01% BSA, 1 mM DTT and K48 in 40 mM Tris, 0.01% BSA.
The compounds were pre-incubated with the USP30 for 5 mins at room temp before the K48 dimer addition. The assay mixture was then incubated for 45 mins at room temp. The assay was stopped by the addition of TFA to a final concentration of 2% (v/v).
Acidified samples of the DUB assays were mixed with 0.5 mM 15N-ubiquitin and then with one part of 2% (v/v) TFA and one part of 2,5 DHAP matrix solution (7.6 mg of 2,5 DHAP in […] ethanol and […] of an aqueous 12 mg ml 1 diammonium hydrogen citrate). Then 250 nl of these solutions were spotted onto an MTP AnchorChip 1,536 TF and this is analysed on the Bruker rapifleX MALDI-TOF.
Table 22 presents the Dundee MALDI-TOF values expressed as % DUB activity remaining at a compound concentration of 1 μM.

Experiment [3] deals with recombinant USP30 (amino acids 57-517 of the human sequence) (Homo sapiens (Human), UniProt Q70CQ3). Description: In vitro USP30 biochemical assay (Ubiquitin-Rhodamine).
Chain of recombinant USP30 (amino acids 57-517 of the human sequence) (Q70CQ3 57-517): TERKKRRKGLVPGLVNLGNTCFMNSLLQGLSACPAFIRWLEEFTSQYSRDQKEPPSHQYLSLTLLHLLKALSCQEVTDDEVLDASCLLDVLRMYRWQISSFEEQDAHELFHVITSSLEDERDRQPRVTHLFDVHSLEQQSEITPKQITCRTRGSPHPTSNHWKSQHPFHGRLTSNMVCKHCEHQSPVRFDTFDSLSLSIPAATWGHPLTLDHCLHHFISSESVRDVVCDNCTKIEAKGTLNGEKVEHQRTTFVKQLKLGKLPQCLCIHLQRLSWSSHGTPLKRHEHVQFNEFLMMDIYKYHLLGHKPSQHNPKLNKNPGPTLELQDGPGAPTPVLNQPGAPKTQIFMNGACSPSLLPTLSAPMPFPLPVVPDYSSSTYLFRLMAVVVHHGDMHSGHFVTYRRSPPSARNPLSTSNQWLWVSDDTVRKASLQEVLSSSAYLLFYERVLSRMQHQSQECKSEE
Where [4] appears, read: Dundee IC50 μM (avg in vitro MS assay).
Where [5] appears, read: avg, read-out: Dundee IC50 μM (avg in vitro MS assay).
The mark [6] stands for this setting: read-out: USP30 IC50 μM (avg), Ubiquitin-Rhodamine substrate 25 nM, 1.5 nM recombinant USP30.
The mark [7] stands for this setting: USP30 IC50 μM (avg), Ubiquitin-Rhodamine substrate 25 nM, 1.5 nM recombinant USP30.

T1 sequence (Q70CQ3 whole entry): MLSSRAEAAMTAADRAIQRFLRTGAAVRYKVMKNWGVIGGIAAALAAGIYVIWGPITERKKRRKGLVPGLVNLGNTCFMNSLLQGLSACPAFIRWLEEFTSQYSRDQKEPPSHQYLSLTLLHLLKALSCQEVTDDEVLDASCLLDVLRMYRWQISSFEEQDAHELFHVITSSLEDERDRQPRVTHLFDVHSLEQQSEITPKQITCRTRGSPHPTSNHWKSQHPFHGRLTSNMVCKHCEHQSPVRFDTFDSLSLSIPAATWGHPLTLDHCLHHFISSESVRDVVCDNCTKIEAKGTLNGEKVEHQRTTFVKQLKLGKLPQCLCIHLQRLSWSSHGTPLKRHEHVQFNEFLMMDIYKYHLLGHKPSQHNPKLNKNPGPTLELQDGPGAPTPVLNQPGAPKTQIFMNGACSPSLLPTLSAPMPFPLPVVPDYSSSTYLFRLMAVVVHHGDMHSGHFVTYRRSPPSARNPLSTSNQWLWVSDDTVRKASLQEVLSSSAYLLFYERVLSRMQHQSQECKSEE

For the molecule `CC(C)(C)NS(=O)(=O)c1ccc(NC(=O)C2(NC(=O)c3ccc(F)cc3)CC2c2ccccc2)cc1` (racemic) [Compound I-82, racemic-N-(Z)-(1-(4-(N-tert-butylsulfamoyl)phenylcarbamoyl)-2-phenylcyclopropyl)-4-fluorobenzamide], the IC50 in experiment [1] (setting [4]) is greater than 1 µM. The activity at 1 µM in experiment [2] was greater than 75%.

Regarding `CC(C)(C)NS(=O)(=O)c1ccc(NC(=O)C2(NC(=O)c3ccc(F)cc3)CC2c2ccccc2)cc1` (racemic) [Compound I-83, racemic-N-((E)-1-(4-(N-tert-butylsulfamoyl)phenylcarbamoyl)-2-phenylcyclopropyl)-4-fluorobenzamide], in experiment [1] (setting [5]), the IC50 was greater than 1 µM. In addition, the activity at 1 µM in experiment [2] was greater than 75%.

For the molecule `CC(C)(C)N[S+]([O-])c1ccc(NC(=O)[C@H](Cc2ccccc2)NC(=O)c2ccc(F)cc2)cc1` (stereo partly drawn) [Compound I-15, N-((2S)-1-(4-(N-tert-Butylsulfinamoyl)phenylamino)-1-oxo-3-phenylpropan-2-yl)-4-fluorobenzamide], the IC50 in experiment [1] (setting [5]) fell in the range of 0.05 to 1 µM. The activity at 1 µM in experiment [2] is 25 to 50%.

Take `CC(C)(C)N=S(C)(=O)c1ccc(NC(=O)[C@H](Cc2ccccc2)NC(=O)c2ccc(F)cc2)cc1` (stereo partly drawn) [Compound I-17, N-((2S)-1-((4-(N-(tert-butyl)-S-methylsulfonimidoyl)phenyl)amino)-1-oxo-3-phenylpropan-2-yl)-4-fluorobenzamide]: the IC50 in experiment [1] (setting [4]) was greater than 1 µM. Also, in experiment [2], the activity at 1 µM is greater than 75%.

For `CC(C)(C)NS(=O)(=O)c1ccc(N2C(=O)C(NC(=O)c3ccc(F)cc3)Cc3ccccc32)cc1` (stereo not drawn) [Compound I-20, N-(1-(4-(N-tert-butylsulfamoyl)phenyl)-2-oxo-1,2,3,4-tetrahydroquinolin-3-yl)-4-fluorobenzamide], the IC50 in experiment [3] (setting [6]) was greater than 10 µM. In experiment [2], the activity at 1 µM is greater than 75%.

On to `CC(C)(C)NS(=O)(=O)c1ccc(N2Cc3ccccc3CC(NC(=O)c3ccc(F)cc3)C2=O)cc1` (stereo not drawn) [Compound I-21, N-(2-(4-(N-tert-butylsulfamoyl)phenyl)-3-oxo-2,3,4,5-tetrahydro-1H-benzo[c]azepin-4-yl)-4-fluorobenzamide], for which the IC50 in experiment [3] (setting [6]) was greater than 10 µM. Besides, in experiment [2], the activity at 1 µM is greater than 75%.

In the case of `C[C@H](NS(=O)(=O)c1ccc(NC(=O)[C@H](Cc2ccccc2)NC(=O)c2ccc(F)cc2)cc1)C1CC1` [Compound I-27, N-((S)-1-(4-(N-((S)-1-cyclopropylethyl)sulfamoyl)phenylamino)-1-oxo-3-phenylpropan-2-yl)-4-fluorobenzamide], in experiment [1] (setting [5]), the IC50 was less than 0.05 µM. The activity at 1 µM in experiment [2] lay in the range of 0 to 25%.

Turning to `CC[C@H](C)NS(=O)(=O)c1ccc(NC(=O)[C@H](Cc2ccccc2)NC(=O)c2ccc(F)cc2)cc1` [Compound I-28, N-((S)-1-((4-(N-((S)-sec-butyl)sulfamoyl)phenyl)amino)-1-oxo-3-phenylpropan-2-yl)-4-fluorobenzamide], the IC50 in experiment [1] (setting [5]) was less than 0.05 µM. The activity at 1 µM in experiment [2] fell in the range of 0 to 25%.

The molecule `CC(C)(C)NC(=O)c1ccc(NC(=O)[C@H](Cc2ccccc2)NC(=O)c2ccc(F)cc2)cc1` [Compound I-29, (S)-N-tert-butyl-4-(2-(4-fluorobenzamido)-3-phenylpropanamido)benzamide] returned an IC50 in experiment [1] (setting [4]) greater than 1 µM. In addition, the activity at 1 µM in experiment [2] is greater than 75%.

As to `CN(C(=O)[C@H](Cc1ccccc1)NC(=O)c1ccc(F)cc1)c1ccc(S(=O)(=O)NC(C)(C)C)cc1` [Compound I-36, (S)-N-(1-((4-(N-tert-butylsulfamoyl)phenyl)(methyl)amino)-1-oxo-3-phenylpropan-2-yl)-4-fluorobenzamide], the IC50 in experiment [1] (setting [5]) is greater than 1 µM. In addition, the activity at 1 µM in experiment [2] is greater than 75%.

Consider `CC(C)(C)NS(=O)(=O)c1ccc(NC[C@@H](O)[C@H](Cc2ccccc2)NC(=O)c2ccc(F)cc2)cc1` [Compound I-42, N-((2S,3R)-4-(4-(N-tert-butylsulfamoyl)phenylamino)-3-hydroxy-1-phenylbutan-2-yl)-4-fluorobenzamide], for which the IC50 in experiment [1] (setting [5]) lay in the range of 1 to 10 µM. Moreover, the activity at 1 µM in experiment [2] is greater than 75%.

Regarding `CC(C)(C)NS(=O)(=O)c1ccc(NC(=O)[C@H](Cc2ccccc2)NC(=O)OC2CCOCC2)cc1` [Compound I-43, (S)-tetrahydro-2H-pyran-4-yl 1-(4-(N-tert-butylsulfamoyl)phenylamino)-1-oxo-3-phenylpropan-2-ylcarbamate], the concentration for half-maximal inhibition (IC50) in experiment [3] (setting [7]) lay within 1 to 10 µM. The activity at 1 µM in experiment [2] lay within 50 to 75%.

Turning to `CC(C)(C)NS(=O)(=O)c1ccc(NC[C@H](Cc2ccccc2)NC(=O)c2ccc(F)cc2)cc1` [Compound I-44, (S)-N-(1-(4-(N-tert-butylsulfamoyl)phenylamino)-3-phenylpropan-2-yl)-4-fluorobenzamide], the IC50 in experiment [1] (setting [5]) is greater than 1 µM. Also, in experiment [2], the activity at 1 µM is greater than 75%.

For `CC(C)(C)NS(=O)(=O)c1ccc(OC[C@H](Cc2ccccc2)NC(=O)c2ccc(F)cc2)cc1` [Compound I-45, (S)-N-(1-(4-(N-tert-butylsulfamoyl)phenoxy)-3-phenylpropan-2-yl)-4-fluorobenzamide], the IC50 in experiment [1] (setting [5]) was greater than 1 µM. Further, in experiment [2], the activity at 1 µM is greater than 75%.

In the case of `CC(C)(C)NS(=O)(=O)c1ccc(NC(=O)[C@H](Cc2ccccc2)OCc2ccc(F)cc2)cc1` [Compound I-46, (S)-N-(4-(N-tert-butylsulfamoyl)phenyl)-2-(4-fluorobenzyloxy)-3-phenylpropanamide], the IC50 in experiment [1] (setting [5]) is greater than 1 µM. The activity at 1 µM in experiment [2] was greater than 75%.

With `CCNS(=O)(=O)c1ccc(NC(=O)C2(NC(=O)c3ccccc3)CCc3ccccc3C2)cc1` (stereo not drawn) [Compound I-47, 2-benzamido-N-(4-(N-ethylsulfamoyl)phenyl)-1,2,3,4-tetrahydronaphthalene-2-carboxamide], in experiment [1] (setting [5]), the half-maximal inhibitory concentration (IC50) was greater than 1 µM. Further, the activity at 1 µM in experiment [2] was greater than 75%.

For `CC(C)(C)NS(=O)(=O)c1ccc(NC(=O)C2(NC(=O)c3ccccc3)CCc3ccccc3C2)cc1` (stereo not drawn) [Compound I-48, 2-benzamido-N-(4-(N-tert-butylsulfamoyl)phenyl)-1,2,3,4-tetrahydronaphthalene-2-carboxamide], the IC50 in experiment [1] (setting [5]) was greater than 1 µM. The activity at 1 µM in experiment [2] is greater than 75%.

Take `CCNS(=O)(=O)c1ccc(NC(=O)C2Cc3ccccc3CN2C(=O)c2ccc(F)cc2)cc1` (stereo not drawn) [Compound I-49, N-(4-(N-ethylsulfamoyl)phenyl)-2-(4-fluorobenzoyl)-1,2,3,4-tetrahydroisoquinoline-3-carboxamide]: the IC50 in experiment [1] (setting [5]) fell in the range of 1 to 10 µM. Also, in experiment [2], the activity at 1 µM was greater than 75%.

As to `CCNS(=O)(=O)c1ccc(NC(=O)[C@H](Cc2ccccc2)N(CC)C(=O)c2ccc(F)cc2)cc1` [Compound I-52, (S)-N-ethyl-N-(1-(4-(N-ethylsulfamoyl)phenylamino)-1-oxo-3-phenylpropan-2-yl)-4-fluorobenzamide], in experiment [3] (setting [6]), the 50% inhibitory concentration (IC50) is greater than 10 µM. Besides, in experiment [2], the activity at 1 µM was greater than 75%.

For the molecule `CC(C)(C)NS(=O)(=O)c1ccc(NC(=O)C2Cc3ccccc3N2C(=O)c2ccc(F)cc2)cc1` (stereo not drawn) [Compound I-53, N-(4-(N-tert-butylsulfamoyl)phenyl)-1-(4-fluorobenzoyl)indoline-2-carboxamide], the IC50 in experiment [3] (setting [6]) is greater than 10 µM. The activity at 1 µM in experiment [2] was greater than 75%.

As for `CC(C)(C)NS(=O)(=O)c1ccc(NC(=O)C2Cc3cnccc3N2C(=O)c2ccc(F)cc2)cc1` (stereo not drawn) [Compound I-55, N-(4-(N-tert-butylsulfamoyl)phenyl)-1-(4-fluorobenzoyl)-2,3-dihydro-1H-pyrrolo[3,2-c]pyridine-2-carboxamide], the IC50 in experiment [3] (setting [6]) is greater than 10 µM. Besides, in experiment [2], the activity at 1 µM was greater than 75%.

With `CC(C)(C)NS(=O)(=O)c1ccc(NC(=O)C2Cc3cccnc3N2C(=O)c2ccc(F)cc2)cc1` (stereo not drawn) [Compound I-57, N-(4-(N-tert-butylsulfamoyl)phenyl)-1-(4-fluorobenzoyl)-2,3-dihydro-1H-pyrrolo[2,3-b]pyridine-2-carboxamide], the concentration for half-maximal inhibition (IC50) in experiment [1] (setting [4]) is greater than 1 µM. Also, the activity at 1 µM in experiment [2] is greater than 75%.

In the case of `CC(C)(C)NS(=O)(=O)c1ccc(NC(=O)C2Cc3cccnc3CN2C(=O)c2ccc(F)cc2)cc1` (stereo not drawn) [Compound I-59, N-(4-(N-tert-butylsulfamoyl)phenyl)-7-(4-fluorobenzoyl)-5,6,7,8-tetrahydro-1,7-naphthyridine-6-carboxamide], the 50% inhibitory concentration (IC50) in experiment [3] (setting [7]) was 1 to 10 µM. The activity at 1 µM in experiment [2] is greater than 75%.

Turning to `CC(C)(C)NS(=O)(=O)c1ccc(NC(=O)C2Cc3ncccc3CN2C(=O)c2ccc(F)cc2)cc1` (stereo not drawn) [Compound I-60, N-(4-(N-tert-butylsulfamoyl)phenyl)-6-(4-fluorobenzoyl)-5,6,7,8-tetrahydro-1,6-naphthyridine-7-carboxamide], the 50% inhibitory concentration (IC50) in experiment [3] (setting [6]) is greater than 10 µM. Also, the activity at 1 µM in experiment [2] was greater than 75%.

The IC50 is the concentration that gives 50% inhibition.
